From paper PMC5396265 (Angewandte Chemie (International Ed. in English), 2017)

Biological target: SPM-1 (São Paulo metallo-β-lactamase; SPM-1* for 19F-labelled variants) (Pseudomonas aeruginosa, UniProt Q8G9Q0, Y58C)
Settings: Cys58 labelled with CH2COCF3 (BTFA); meropenem up to 400 uM, 40 uM protein, 50 mM Tris pH 7.5, 9:1 H2O/D2O; product formed in situ; presence of this pair in Table S3 not seen

Chain of SPM-1 (São Paulo metallo-β-lactamase; SPM-1* for 19F-labelled variants) (Q8G9Q0 29-276 Y58C): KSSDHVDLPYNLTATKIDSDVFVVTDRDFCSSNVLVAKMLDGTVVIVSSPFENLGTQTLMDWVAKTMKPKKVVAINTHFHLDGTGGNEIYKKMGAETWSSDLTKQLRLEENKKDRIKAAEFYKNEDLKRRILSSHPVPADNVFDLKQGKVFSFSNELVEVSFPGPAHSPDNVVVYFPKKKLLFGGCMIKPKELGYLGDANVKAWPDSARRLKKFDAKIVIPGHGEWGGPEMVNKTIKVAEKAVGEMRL

CC(O)C(C(=O)O)C1NC(C(=O)O)=C(SC2CNC(C(=O)N(C)C)C2)C1C (stereo not shown) [hydrolyzed meropenem]
Kd: 100 ± 10 µM
